The NIST ThermoML archive (doi:10.1016/j.jct.2004.09.017)

Assays:
[1] = relative permittivity at various frequencies (dimensionless); xn = mol fraction of the nth substance listed; settings: 298.2 K, 101.3 kPa, Liquid, Frequency=0.1 MHz, Wayne Kerr model 6425B Digibridge
[2] = refractive index (Na D-line) (dimensionless); xn = mol fraction of the nth substance listed; settings: 298.2 K, 101.3 kPa, Liquid
[3] = refractive index (Na D-line) (dimensionless); settings: 298.2 K; 101.33 kPa; Liquid
[4] = relative permittivity at various frequencies (dimensionless); settings: 298.2 K; 101.3 kPa; Liquid; Frequency=0.01 MHz; Wayne Kerr model 6425B Digibridge

CC(C)(C)O [2-methylpropan-2-ol] + C1CCCCC1
Settings	refractive index, [2]	relative permittivity, [1]
x1 = 0.07	1.4241	2.051
x1 = 0.1	1.4226	2.058
x1 = 0.2	1.4179	2.089
x1 = 0.3	1.4138	2.308
x1 = 0.4	1.41	2.586
x1 = 0.5	1.4056	3.096
x1 = 0.6	1.4007	3.88
x1 = 0.8	1.3928	6.422

CCO [ethanol] + CCCCC(CC)CO
x1 = 1
Settings	refractive index	relative permittivity
[1]	–	23.646
[2]	1.3592	–

CC(C)(C)O [2-methylpropan-2-ol]
Settings	refractive index	relative permittivity
[3]	1.3864	–
[4]	–	12.23

C1CCCCC1 [cyclohexane] + CCO
Settings	refractive index, [2]	relative permittivity, [1]
x2 = 0.1	1.4235	2.155
x2 = 0.24	1.4179	2.571
x2 = 0.42	1.4103	4.223
x2 = 0.55	1.4032	6.462
x2 = 0.66	1.3953	8.974
x2 = 0.74	1.3887	11.249
x2 = 0.81	1.3813	13.878
x2 = 0.9	1.3733	17.89

CCCCC(CC)CO (configuration not stated) [2-ethyl-1-hexanol] + CC(C)(C)O
Settings	refractive index, [2]	relative permittivity, [1]
x2 = 0	1.4316	7.354
x2 = 0.05	1.4304	7.487
x2 = 0.07	1.4298	7.598
x2 = 0.09	1.429	7.653
x2 = 0.1	1.4287	7.685
x2 = 0.2	1.427	8.057
x2 = 0.3	1.4235	8.506
x2 = 0.4	1.42	8.933
x2 = 0.5	1.4163	9.398
x2 = 0.6	1.4117	9.952

CCCCC(CC)CO (configuration not stated) [2-ethyl-1-hexanol]
Settings	refractive index	relative permittivity
[3]	1.4316	–
[4]	–	7.354

CCCCO [butan-1-ol] + CCCCC(CC)CO
x1 = 1
Settings	refractive index	relative permittivity
[1]	–	17.5
[2]	1.3988	–

CCO [ethanol]
Settings	refractive index	relative permittivity
[3]	1.3592	–
[4]	–	23.646

CCCCO [butan-1-ol]
Settings	refractive index	relative permittivity
[3]	1.3988	–
[4]	–	17.5

C1CCCCC1 [cyclohexane] + CCCCO
Settings	refractive index, [2]	relative permittivity, [1]
x2 = 0.05	1.4206	2.439
x2 = 0.1	1.4191	2.683
x2 = 0.2	1.4162	3.112
x2 = 0.3	1.4132	3.952
x2 = 0.4	1.4109	4.888
x2 = 0.5	1.4085	6.713
x2 = 0.6	1.4061	8.451
x2 = 0.72	1.4035	10.848

CCCCC(CC)CO (configuration not stated) [2-ethyl-1-hexanol] + CCO
Settings	refractive index, [2]	relative permittivity, [1]
x2 = 0	1.4316	7.354
x2 = 0.12	1.4261	8.086
x2 = 0.23	1.4232	8.999
x2 = 0.32	1.4194	10.192
x2 = 0.4	1.4162	11.099
x2 = 0.47	1.4123	12.08
x2 = 0.53	1.4097	12.744
x2 = 0.64	1.4015	14.496
x2 = 0.7	1.3971	15.885
x2 = 0.82	1.386	18.259

CC(C)(C)O [2-methylpropan-2-ol] + CCCCC(CC)CO
x1 = 1
Settings	refractive index	relative permittivity
[1]	–	12.23
[2]	1.3864	–

CCCCC(CC)CO (configuration not stated) [2-ethyl-1-hexanol] + CCCCO
Settings	refractive index, [2]	relative permittivity, [1]
x2 = 0	1.4316	7.354
x2 = 0.1	1.4291	8.21
x2 = 0.15	1.4278	8.682
x2 = 0.3	1.4238	10.48
x2 = 0.42	1.4214	11.42
x2 = 0.53	1.4182	12.01
x2 = 0.63	1.415	12.9
x2 = 0.72	1.412	14.34
x2 = 0.8	1.4088	15.21
x2 = 0.9	1.4036	16.41
